# Measured values: patent US20250171495A1, “MUTLI-TARGETED SERINE PROTEASE INHIBITORS FOR TREATMENT OF CANCER AND VIRAL INFECTION” (Washington University, priority 2023, published 2025)
# “And” between values parts separate entries of the source, which are not always exact repeats. Equal entries are not always repeated.
# How the values were obtained:
# Format in all cases: biochemical
# hepsin = biological target: T1, hepsin (Homo sapiens, UniProt P05981); experiment: HyCoSuL P4-P2 substrate specificity screening, hepsin; conditions: for P2 Position Substrate Activity for hepsin (percent substrate cleavage/proteolysis): residue fixed at P2 position; for P2 Position Substrate Activity for hepsin (percent substrate cleavage/proteolysis) / P3 Position Substrate Activity for hepsin (percent substrate cleavage/proteolysis) / P4 Position Substrate Activity for hepsin (percent substrate cleavage/proteolysis): P1-Arg HyCoSuL, 100 μM, best recognized amino acid set to 100%; for P3 Position Substrate Activity for hepsin (percent substrate cleavage/proteolysis): residue fixed at P3 position; for P4 Position Substrate Activity for hepsin (percent substrate cleavage/proteolysis): residue fixed at P4 position; for P4 Position Various Amino Acids Substrate Activity, hepsin (percent substrate proteolysis/cleavage): residue fixed at P4 position of substrate library; for P3 Position Various Amino Acids Substrate Activity, hepsin (percent substrate cleavage/proteolysis): residue fixed at P3 position of substrate library
# T1 construct: purchased R&D Systems 4776-SE-010
# T1 sequence (P05981 163-417 limits assumed): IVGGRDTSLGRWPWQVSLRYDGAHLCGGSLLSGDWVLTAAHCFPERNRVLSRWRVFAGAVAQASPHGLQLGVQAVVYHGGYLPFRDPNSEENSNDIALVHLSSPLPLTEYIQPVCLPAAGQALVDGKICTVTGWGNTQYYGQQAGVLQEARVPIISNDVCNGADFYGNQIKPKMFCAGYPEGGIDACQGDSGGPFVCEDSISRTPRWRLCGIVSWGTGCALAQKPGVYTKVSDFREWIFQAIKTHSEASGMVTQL
# T1 sequence (P05981 1-162 partner limits assumed): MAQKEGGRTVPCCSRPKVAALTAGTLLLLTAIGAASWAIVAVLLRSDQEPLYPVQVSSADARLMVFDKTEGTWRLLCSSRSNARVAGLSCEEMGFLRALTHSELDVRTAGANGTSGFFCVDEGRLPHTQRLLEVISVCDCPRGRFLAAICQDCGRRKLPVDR
# TMPRSS2 = TMPRSS2 (Homo sapiens, UniProt O15393); experiment: PS-SCL / HyCoSuL substrate specificity screening, TMPRSS2; conditions: for P2 Position Substrate Activity for TMPRSS2 (percent substrate cleavage/proteolysis): residue fixed at P2 position of substrate library; for P2 Position Substrate Activity for TMPRSS2 (percent substrate cleavage/proteolysis) / P3 Position Substrate Activity for TMPRSS2 (percent substrate cleavage/proteolysis) / P4 Position Substrate Activity for TMPRSS2 (percent substrate cleavage/proteolysis): best recognized amino acid set to 100%; for P3 Position Substrate Activity for TMPRSS2 (percent substrate cleavage/proteolysis) / P3 Position Various Amino Acids Substrate Activity, TMPRSS2 (percent substrate cleavage/proteolysis): residue fixed at P3 position of substrate library; for P4 Position Substrate Activity for TMPRSS2 (percent substrate cleavage/proteolysis) / P4 Position Various Amino Acids Substrate Activity, TMPRSS2 (percent substrate proteolysis/cleavage): residue fixed at P4 position of substrate library
# Sequence of TMPRSS2 (O15393 whole entry): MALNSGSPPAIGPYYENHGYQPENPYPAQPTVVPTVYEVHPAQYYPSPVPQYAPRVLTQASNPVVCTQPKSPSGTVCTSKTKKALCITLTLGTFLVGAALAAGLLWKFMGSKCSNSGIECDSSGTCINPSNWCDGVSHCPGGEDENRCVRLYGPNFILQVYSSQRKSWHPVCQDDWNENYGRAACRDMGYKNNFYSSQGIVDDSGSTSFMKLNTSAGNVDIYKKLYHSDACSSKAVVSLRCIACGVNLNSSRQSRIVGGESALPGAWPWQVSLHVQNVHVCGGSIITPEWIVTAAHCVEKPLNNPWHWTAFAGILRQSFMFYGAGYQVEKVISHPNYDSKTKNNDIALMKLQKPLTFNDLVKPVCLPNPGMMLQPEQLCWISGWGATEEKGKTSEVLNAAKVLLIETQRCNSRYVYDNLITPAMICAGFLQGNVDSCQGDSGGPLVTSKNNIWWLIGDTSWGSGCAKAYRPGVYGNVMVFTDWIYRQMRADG
# HGFA = biological target: T2, HGFA (Homo sapiens, UniProt Q04756); experiment: HyCoSuL P4-P2 substrate specificity screening, HGFA; conditions: for P2 Position Substrate Activity for HGFA (percent substrate cleavage/proteolysis): residue fixed at P2 position; for P2 Position Substrate Activity for HGFA (percent substrate cleavage/proteolysis) / P3 Position Substrate Activity for HGFA (percent substrate cleavage/proteolysis) / P4 Position Substrate Activity for HGFA (percent substrate cleavage/proteolysis): P1-Arg HyCoSuL, 100 μM, best recognized amino acid set to 100%; for P3 Position Substrate Activity for HGFA (percent substrate cleavage/proteolysis): residue fixed at P3 position; for P4 Position Substrate Activity for HGFA (percent substrate cleavage/proteolysis): residue fixed at P4 position; for P4 Position Various Amino Acids Substrate Activity, HGFA (percent substrate proteolysis/cleavage): residue fixed at P4 position of substrate library; for P3 Position Various Amino Acids Substrate Activity, HGFA (percent substrate cleavage/proteolysis): residue fixed at P3 position of substrate library
# T2 sequence (Q04756 373-655): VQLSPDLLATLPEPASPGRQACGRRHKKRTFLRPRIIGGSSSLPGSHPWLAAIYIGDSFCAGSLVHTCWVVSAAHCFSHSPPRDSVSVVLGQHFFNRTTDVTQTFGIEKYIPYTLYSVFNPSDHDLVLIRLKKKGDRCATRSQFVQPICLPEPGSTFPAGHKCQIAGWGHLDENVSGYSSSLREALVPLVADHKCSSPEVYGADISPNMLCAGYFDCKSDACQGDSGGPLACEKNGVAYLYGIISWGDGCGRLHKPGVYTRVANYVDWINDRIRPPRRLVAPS
# matriptase = biological target: T3, matriptase (Homo sapiens, UniProt Q9Y5Y6); experiment: HyCoSuL P4-P2 substrate specificity screening, matriptase; conditions: for P2 Position Substrate Activity for matriptase (percent substrate cleavage/proteolysis): residue fixed at P2 position; for P2 Position Substrate Activity for matriptase (percent substrate cleavage/proteolysis) / P3 Position Substrate Activity for matriptase (percent substrate cleavage/proteolysis) / P4 Position Substrate Activity for matriptase (percent substrate cleavage/proteolysis): P1-Arg HyCoSuL, 100 μM, best recognized amino acid set to 100%; for P3 Position Various Amino Acids Substrate Activity, matriptase (percent substrate cleavage/proteolysis): residue fixed at P3 position of substrate library; for P3 Position Substrate Activity for matriptase (percent substrate cleavage/proteolysis): residue fixed at P3 position; for P4 Position Various Amino Acids Substrate Activity, matriptase (percent substrate proteolysis/cleavage): residue fixed at P4 position of substrate library; for P4 Position Substrate Activity for matriptase (percent substrate cleavage/proteolysis): residue fixed at P4 position
# T3 sequence (Q9Y5Y6 1-855): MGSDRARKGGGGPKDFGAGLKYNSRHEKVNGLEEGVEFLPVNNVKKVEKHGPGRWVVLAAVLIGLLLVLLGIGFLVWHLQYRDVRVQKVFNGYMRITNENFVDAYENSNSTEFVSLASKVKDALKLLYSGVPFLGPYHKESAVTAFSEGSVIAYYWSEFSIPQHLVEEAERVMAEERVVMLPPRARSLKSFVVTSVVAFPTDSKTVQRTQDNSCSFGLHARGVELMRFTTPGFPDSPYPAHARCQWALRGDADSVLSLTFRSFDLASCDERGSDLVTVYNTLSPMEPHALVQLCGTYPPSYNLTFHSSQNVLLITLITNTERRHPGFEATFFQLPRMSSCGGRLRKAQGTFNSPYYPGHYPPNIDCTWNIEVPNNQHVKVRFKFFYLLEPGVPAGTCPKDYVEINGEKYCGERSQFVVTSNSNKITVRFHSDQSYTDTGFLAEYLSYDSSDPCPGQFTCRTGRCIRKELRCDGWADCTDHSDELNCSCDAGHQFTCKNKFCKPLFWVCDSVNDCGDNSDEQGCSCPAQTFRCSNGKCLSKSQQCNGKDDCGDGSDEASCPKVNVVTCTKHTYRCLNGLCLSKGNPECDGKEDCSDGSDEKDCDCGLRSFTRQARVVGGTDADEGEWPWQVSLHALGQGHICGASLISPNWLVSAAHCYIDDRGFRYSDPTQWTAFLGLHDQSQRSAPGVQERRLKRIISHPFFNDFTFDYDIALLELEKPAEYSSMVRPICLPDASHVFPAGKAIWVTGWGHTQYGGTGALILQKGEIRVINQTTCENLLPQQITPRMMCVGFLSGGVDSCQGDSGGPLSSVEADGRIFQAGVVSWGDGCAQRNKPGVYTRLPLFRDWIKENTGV
P2 Position Substrate Activity for hepsin (percent substrate cleavage/proteolysis) (hepsin),P3 Position Substrate Activity for hepsin (percent substrate cleavage/proteolysis) (hepsin),P4 Position Substrate Activity for hepsin (percent substrate cleavage/proteolysis) (hepsin),P2 Position Substrate Activity for TMPRSS2 (percent substrate cleavage/proteolysis) (TMPRSS2),P3 Position Substrate Activity for TMPRSS2 (percent substrate cleavage/proteolysis) (TMPRSS2),P4 Position Substrate Activity for TMPRSS2 (percent substrate cleavage/proteolysis) (TMPRSS2),P2 Position Substrate Activity for HGFA (percent substrate cleavage/proteolysis) (HGFA),P3 Position Substrate Activity for HGFA (percent substrate cleavage/proteolysis) (HGFA),P4 Position Substrate Activity for HGFA (percent substrate cleavage/proteolysis) (HGFA),P2 Position Substrate Activity for matriptase (percent substrate cleavage/proteolysis) (matriptase),"P3 Position Various Amino Acids Substrate Activity, matriptase (percent substrate cleavage/proteolysis) (matriptase)",P3 Position Substrate Activity for matriptase (percent substrate cleavage/proteolysis) (matriptase),"P4 Position Various Amino Acids Substrate Activity, matriptase (percent substrate proteolysis/cleavage) (matriptase)",P4 Position Substrate Activity for matriptase (percent substrate cleavage/proteolysis) (matriptase),"P4 Position Various Amino Acids Substrate Activity, hepsin (percent substrate proteolysis/cleavage) (hepsin)","P4 Position Various Amino Acids Substrate Activity, TMPRSS2 (percent substrate proteolysis/cleavage) (TMPRSS2)","P4 Position Various Amino Acids Substrate Activity, HGFA (percent substrate proteolysis/cleavage) (HGFA)","P3 Position Various Amino Acids Substrate Activity, hepsin (percent substrate cleavage/proteolysis) (hepsin)","P3 Position Various Amino Acids Substrate Activity, TMPRSS2 (percent substrate cleavage/proteolysis) (TMPRSS2)","P3 Position Various Amino Acids Substrate Activity, HGFA (percent substrate cleavage/proteolysis) (HGFA)",Substance
46.70%,80.71%,75.43%,3.79%,27.86%,14.11%,1.04%,44.63%,18.29%,6%,81%,76.43% and 80.67%,75%,75.49%,,,,,,,L-Lys
11.40%,68.16%,,0.00%,57.41%,,1.68%,16.63%,,1%,52%,51.68%,10%,,22.86%,24.40%,6.64%,,,,L-Met(O)
62.04%,,,11.80%,,,45.52%,,,13%,34%,,34%,,40.93%,56.06%,11.76%,24.09%,38.11%,19.15%,L-Nle
58.40%,,,13.88%,,,39.80%,,,11%,25%,,30%,,41.99%,54.45%,11.78%,25.85%,38.62%,17.60%,L-Nva
78.48%,79.70%,84.52%,0.00%,22.76%,12.33%,0.00%,54.04%,20.23%,4%,74%,73.75% and 62.39%,82%,82.42%,,,,,,,L-Orn
25.22%,,,95.60%,,,16.60%,,,39%,19%,,14%,,30.80%,31.64%,9.42%,2.91%,14.74%,13.51%,L-Phe
13.10%,,,16.87%,,,2.21%,,,22%,2%,,40%,,56.00%,40.11%,10.30%,2.09%,0.00%,2.04%,L-Pro
18.40%,,,19.86%,,,3.24%,,,28%,33%,,19%,,31.63%,20.12%,7.04%,38.70%,35.95%,14.57%,L-Ser
